Results from article PMC10937556, “Phenolic phytochemistry, in vitro, in silico, in vivo, and mechanistic anti-inflammatory and antioxidant evaluations of Habenaria digitata” (Frontiers in Pharmacology, 2024).

Molecular target: T1, 5-LOX (Homo sapiens, UniProt P09917)
T1 construct: purchased Sigma-Aldrich (local distributor) 437996
T1 sequence (P09917 1-674): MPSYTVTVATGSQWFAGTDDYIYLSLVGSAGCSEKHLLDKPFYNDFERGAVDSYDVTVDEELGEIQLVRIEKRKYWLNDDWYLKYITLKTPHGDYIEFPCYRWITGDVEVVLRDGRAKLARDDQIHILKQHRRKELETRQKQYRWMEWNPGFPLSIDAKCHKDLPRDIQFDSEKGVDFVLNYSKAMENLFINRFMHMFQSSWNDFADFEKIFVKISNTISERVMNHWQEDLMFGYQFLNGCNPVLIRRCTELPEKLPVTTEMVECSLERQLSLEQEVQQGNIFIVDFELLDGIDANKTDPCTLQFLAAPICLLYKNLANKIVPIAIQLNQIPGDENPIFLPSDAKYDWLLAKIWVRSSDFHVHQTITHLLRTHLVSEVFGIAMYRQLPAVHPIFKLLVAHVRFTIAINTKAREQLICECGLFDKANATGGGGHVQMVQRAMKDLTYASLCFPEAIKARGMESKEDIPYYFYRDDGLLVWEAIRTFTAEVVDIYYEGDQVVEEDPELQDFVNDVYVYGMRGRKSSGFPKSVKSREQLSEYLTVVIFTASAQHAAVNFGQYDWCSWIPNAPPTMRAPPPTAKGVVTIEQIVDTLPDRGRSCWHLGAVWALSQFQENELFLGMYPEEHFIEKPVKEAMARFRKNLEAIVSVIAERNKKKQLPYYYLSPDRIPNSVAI
Test: 5-Lipoxygenase (5-LOX) inhibition assay
Type: biochemical
Settings: not given
Method: The 5-LOX inhibitory experiments on H. digitata samples were carried out as per published protocol ([Pervaiz et al., 2022]). Several concentrations of plant samples were made, with concentrations ranging from 31.25 to 1,000 μg/mL. Thereafter, 5-LOX was primed with 10,000 U/mL solutions. Linoleic acid (80 mM) was used as the substrate. Likewise, 50 mM phosphate buffer with a pH of 6.3 was primed. Plant samples of varied quantities were dissolved in 250 µL of phosphate buffer, and then, 250 µL of the lipoxygenase enzyme solution was added and incubated for 5 min at room temperature. A volume of 1,000 µL of the substrate solution with a concentration of 0.6 mM was added to the enzyme solution and shaken. The absorbance at 234 nm was observed. All of the tests were conducted three times. In this test, zileuton served as a positive control. The percentage inhibition was determined using the following equation: Percentage Inhibition=Control Abs. −Sample Abs. /Control Abs. ×100.
The IC50 values were derived by plotting the inhibitions against the concentrations of the tested sample solution.

SMILES | IC50 [µM]
Cc1ccc(C(C)C)c(O)c1 [Compound 3, 2-isopropyl-5-methylphenol] | 174
C=Cc1ccc(O)cc1OC [Compound 4, 3-methoxy-4-vinylphenol] | 182
CC1=C(O)C(=O)C(O)CO1 (stereo not shown) [Compound 2, 3,5-dihydroxy-6-methyl-2,3-dihydro-4H-pyran-4-one] | 73.9

Same assay, conditions: 62.50 μg/mL; read-out: % 5-LOX inhibitions

SMILES | inhibition at 62.5 µg/mL [%]
Cc1ccc(C(C)C)c(O)c1 [Compound 3, 2-isopropyl-5-methylphenol] | 51.9 ± 1.16
C=Cc1ccc(O)cc1OC [Compound 4, 3-methoxy-4-vinylphenol] | 59.8 ± 0.65
CC1=C(O)C(=O)C(O)CO1 (stereo not shown) [Compound 2, 3,5-dihydroxy-6-methyl-2,3-dihydro-4H-pyran-4-one] | 61.35 ± 0.18

Same assay, conditions: 125 µg/mL; read-out: % 5-LOX inhibitions

SMILES | inhibition at 125 µg/mL [%]
Cc1ccc(C(C)C)c(O)c1 [Compound 3, 2-isopropyl-5-methylphenol] | 57.34 ± 0.55
C=Cc1ccc(O)cc1OC [Compound 4, 3-methoxy-4-vinylphenol] | 66.7 ± 0.78
CC1=C(O)C(=O)C(O)CO1 (stereo not shown) [Compound 2, 3,5-dihydroxy-6-methyl-2,3-dihydro-4H-pyran-4-one] | 66.2 ± 0.15

Same assay, conditions: 250 µg/mL; read-out: % 5-LOX inhibitions

SMILES | inhibition at 250 µg/mL [%]
Cc1ccc(C(C)C)c(O)c1 [Compound 3, 2-isopropyl-5-methylphenol] | 61.36 ± 0.49
C=Cc1ccc(O)cc1OC [Compound 4, 3-methoxy-4-vinylphenol] | 75.7 ± 0.62
CC1=C(O)C(=O)C(O)CO1 (stereo not shown) [Compound 2, 3,5-dihydroxy-6-methyl-2,3-dihydro-4H-pyran-4-one] | 73.42 ± 0.11

Same assay, conditions: 500 µg/mL; read-out: % 5-LOX inhibitions

SMILES | inhibition at 500 µg/mL [%]
Cc1ccc(C(C)C)c(O)c1 [Compound 3, 2-isopropyl-5-methylphenol] | 67.39 ± 0.49
C=Cc1ccc(O)cc1OC [Compound 4, 3-methoxy-4-vinylphenol] | 80.76 ± 0.63
CC1=C(O)C(=O)C(O)CO1 (stereo not shown) [Compound 2, 3,5-dihydroxy-6-methyl-2,3-dihydro-4H-pyran-4-one] | 78.62 ± 0.17

Same assay, conditions: 1,000 μg/mL; listed as Comp 4

SMILES | % 5-LOX inhibitions [%]
C=Cc1ccc(O)cc1OC [Compound 4, 3-methoxy-4-vinylphenol] | 84.83 ± 0.62

Same assay, conditions: 1,000 µg/mL; read-out: % 5-LOX inhibitions

SMILES | inhibition at 1000 µg/mL [%]
Cc1ccc(C(C)C)c(O)c1 [Compound 3, 2-isopropyl-5-methylphenol] | 73.39 ± 0.6
C=Cc1ccc(O)cc1OC [Compound 4, 3-methoxy-4-vinylphenol] | 76.7 ± 0.66
CC1=C(O)C(=O)C(O)CO1 (stereo not shown) [Compound 2, 3,5-dihydroxy-6-methyl-2,3-dihydro-4H-pyran-4-one] | 83.53 ± 0.2

Molecular target: T2, COX-2 (Homo sapiens, UniProt P35354)
T2 construct: purchased Sigma-Aldrich (local distributor) C0858
T2 sequence (P35354 18-604): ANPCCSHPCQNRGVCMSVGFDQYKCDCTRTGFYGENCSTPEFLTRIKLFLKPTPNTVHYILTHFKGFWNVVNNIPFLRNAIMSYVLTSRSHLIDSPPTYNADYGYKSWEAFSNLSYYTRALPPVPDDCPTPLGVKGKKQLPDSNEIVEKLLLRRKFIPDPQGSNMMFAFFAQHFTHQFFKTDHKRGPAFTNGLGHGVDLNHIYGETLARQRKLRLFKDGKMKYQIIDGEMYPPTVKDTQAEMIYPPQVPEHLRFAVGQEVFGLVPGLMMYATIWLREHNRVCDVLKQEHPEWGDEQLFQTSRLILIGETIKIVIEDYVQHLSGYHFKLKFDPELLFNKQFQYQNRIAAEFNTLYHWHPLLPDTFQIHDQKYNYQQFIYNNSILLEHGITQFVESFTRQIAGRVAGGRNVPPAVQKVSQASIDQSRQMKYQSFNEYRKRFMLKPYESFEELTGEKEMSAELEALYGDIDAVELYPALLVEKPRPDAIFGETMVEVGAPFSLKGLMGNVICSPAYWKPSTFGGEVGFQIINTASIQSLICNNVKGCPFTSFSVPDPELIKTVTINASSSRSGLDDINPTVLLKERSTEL
Test: Cyclooxygenase COX-2 inhibition assay
Type: biochemical
Settings: not given
Method: The COX-2 enzyme solution with 300 U/mL concentrations was formed. The enzyme solution (10 µL) was maintained on ice up to 10 min for activation. Moreover, this solution was added to a 50 µL co-factor solution containing 1 mM hematin, 0.9 mM glutathione, and 0.24 mM N,N,N,N-tetramethyl-p-phenylenediamine dihydrochloride (TMPD) in 0.1 M Tris HCl buffer at pH 8.0. […] Likewise, 30 mM of arachidonic acid (20 µL) was mixed for initiating the reaction and incubated for 4–5 min. Following incubation, absorbance of the samples was determined using a UV-visible spectrophotometer at 570 nm. The percentage inhibition of the COX-2 enzyme was determined through the absorbance value per unit time. Enzyme inhibition against various concentrations of investigated samples was used to calculate the IC50 values.

SMILES | IC50 [µM]
Cc1ccc(C(C)C)c(O)c1 [Compound 3, 2-isopropyl-5-methylphenol] | 145
C=Cc1ccc(O)cc1OC [Compound 4, 3-methoxy-4-vinylphenol] | 135
CC1=C(O)C(=O)C(O)CO1 (stereo not shown) [Compound 2, 3,5-dihydroxy-6-methyl-2,3-dihydro-4H-pyran-4-one] | 101

Same assay, conditions: 62.50 μg/mL

SMILES | inhibition at 62.5 µg/mL [%]
Cc1ccc(C(C)C)c(O)c1 [Compound 3, 2-isopropyl-5-methylphenol] | 53 ± 0.57
C=Cc1ccc(O)cc1OC [Compound 4, 3-methoxy-4-vinylphenol] | 55.56 ± 0.52
CC1=C(O)C(=O)C(O)CO1 (stereo not shown) [Compound 2, 3,5-dihydroxy-6-methyl-2,3-dihydro-4H-pyran-4-one] | 58.12 ± 0.34

Same assay, conditions: 125 µg/mL

SMILES | inhibition at 125 µg/mL [%]
Cc1ccc(C(C)C)c(O)c1 [Compound 3, 2-isopropyl-5-methylphenol] | 62.5 ± 0.44
C=Cc1ccc(O)cc1OC [Compound 4, 3-methoxy-4-vinylphenol] | 64.78 ± 0.6
CC1=C(O)C(=O)C(O)CO1 (stereo not shown) [Compound 2, 3,5-dihydroxy-6-methyl-2,3-dihydro-4H-pyran-4-one] | 63.47 ± 0.49

Same assay, conditions: 250 µg/mL

SMILES | inhibition at 250 µg/mL [%]
Cc1ccc(C(C)C)c(O)c1 [Compound 3, 2-isopropyl-5-methylphenol] | 66.33 ± 0.33
C=Cc1ccc(O)cc1OC [Compound 4, 3-methoxy-4-vinylphenol] | 71.46 ± 0.53
CC1=C(O)C(=O)C(O)CO1 (stereo not shown) [Compound 2, 3,5-dihydroxy-6-methyl-2,3-dihydro-4H-pyran-4-one] | 68.75 ± 0.14

Same assay, conditions: 500 µg/mL

SMILES | inhibition at 500 µg/mL [%]
Cc1ccc(C(C)C)c(O)c1 [Compound 3, 2-isopropyl-5-methylphenol] | 74.7 ± 1.2
C=Cc1ccc(O)cc1OC [Compound 4, 3-methoxy-4-vinylphenol] | 77.68 ± 0.63
CC1=C(O)C(=O)C(O)CO1 (stereo not shown) [Compound 2, 3,5-dihydroxy-6-methyl-2,3-dihydro-4H-pyran-4-one] | 75.59 ± 0.3

Same assay, conditions: 1,000 µg/mL

SMILES | inhibition at 1000 µg/mL [%]
Cc1ccc(C(C)C)c(O)c1 [Compound 3, 2-isopropyl-5-methylphenol] | 79 ± 0.16
C=Cc1ccc(O)cc1OC [Compound 4, 3-methoxy-4-vinylphenol] | 85.72 ± 0.79
CC1=C(O)C(=O)C(O)CO1 (stereo not shown) [Compound 2, 3,5-dihydroxy-6-methyl-2,3-dihydro-4H-pyran-4-one] | 80.85 ± 0.18

Tested on: not listed separately
Test: H2O2 free radical scavenging activity
Settings: not given
Method: The antioxidant potential of isolated compounds was determined using this approach. In a phosphate buffer solution (50 mM, pH 7.40), a solution of H2O2 (2 mM) was produced. The crude extract (0.10 mL) was measured in a test tube and diluted to 0.40 mL using phosphate buffer. Thereafter, H2O2 (0.60 mL) was added and thoroughly mixed. […] 230 nm was used to measure the absorbance of the sample and the standard ([Sadiq et al., 2018]). For all the crude samples, the exact process was followed. According to the procedure, the inhibition percentage and IC50 values were computed.

SMILES | H2O2 IC50 [mg/L]
Cc1ccc(C(C)C)c(O)c1 [Compound 3, 2-isopropyl-5-methylphenol] | 33
C=Cc1ccc(O)cc1OC [Compound 4, 3-methoxy-4-vinylphenol] | 65
CC1=C(O)C(=O)C(O)CO1 (stereo not shown) [Compound 2, 3,5-dihydroxy-6-methyl-2,3-dihydro-4H-pyran-4-one] | 06

Same assay, conditions: 62.5 µg/mL

SMILES | H2O2 % inhibition
Cc1ccc(C(C)C)c(O)c1 [Compound 3, 2-isopropyl-5-methylphenol] | 58.74 ± 0.68 %
C=Cc1ccc(O)cc1OC [Compound 4, 3-methoxy-4-vinylphenol] | 53.90 ± 0.48 %
CC1=C(O)C(=O)C(O)CO1 (stereo not shown) [Compound 2, 3,5-dihydroxy-6-methyl-2,3-dihydro-4H-pyran-4-one] | 67.90 ± 1.16 ^ns %

Same assay, conditions: 125 µg/mL

SMILES | H2O2 % inhibition
Cc1ccc(C(C)C)c(O)c1 [Compound 3, 2-isopropyl-5-methylphenol] | 62.70 ± 1.25 %
C=Cc1ccc(O)cc1OC [Compound 4, 3-methoxy-4-vinylphenol] | 57.03 ± 0.48 %
CC1=C(O)C(=O)C(O)CO1 (stereo not shown) [Compound 2, 3,5-dihydroxy-6-methyl-2,3-dihydro-4H-pyran-4-one] | 71.34 ± 0.55 ^ns %

Same assay, conditions: 250 µg/mL

SMILES | H2O2 % inhibition
Cc1ccc(C(C)C)c(O)c1 [Compound 3, 2-isopropyl-5-methylphenol] | 67.05 ± 0.75 %
C=Cc1ccc(O)cc1OC [Compound 4, 3-methoxy-4-vinylphenol] | 62.90 ± 0.96 %
CC1=C(O)C(=O)C(O)CO1 (stereo not shown) [Compound 2, 3,5-dihydroxy-6-methyl-2,3-dihydro-4H-pyran-4-one] | 75.36 ± 0.49 ^ns %

Same assay, conditions: 500 µg/mL

SMILES | H2O2 % inhibition
Cc1ccc(C(C)C)c(O)c1 [Compound 3, 2-isopropyl-5-methylphenol] | 72.32 ± 1.06 %
C=Cc1ccc(O)cc1OC [Compound 4, 3-methoxy-4-vinylphenol] | 65.65 ± 1.34 %
CC1=C(O)C(=O)C(O)CO1 (stereo not shown) [Compound 2, 3,5-dihydroxy-6-methyl-2,3-dihydro-4H-pyran-4-one] | 80.39 ± 0.49 ^ns %

Same assay, conditions: 1,000 µg/mL

SMILES | H2O2 % inhibition
Cc1ccc(C(C)C)c(O)c1 [Compound 3, 2-isopropyl-5-methylphenol] | 77.34 ± 0.98 %
C=Cc1ccc(O)cc1OC [Compound 4, 3-methoxy-4-vinylphenol] | 69.58 ± 1.12 %
CC1=C(O)C(=O)C(O)CO1 (stereo not shown) [Compound 2, 3,5-dihydroxy-6-methyl-2,3-dihydro-4H-pyran-4-one] | 86.39 ± 0.60 ^ns %
